Consider two compounds from patent publication US20260226073A1 (AURIGENE ONCOLOGY LIMITED, priority 2023, published 2026).

The target in experiment [1] is T1, human recombinant CBL-b (human Biotin CBL-b recombinant protein a.a. 39-426) (Homo sapiens, UniProt Q13191).
T1 construct: human Biotin CBL-b recombinant protein a.a; 39-426; Biotin (biotinylated); made in house
In words: Biochemical assay for CBL-b inhibition (ligand displacement TR-FRET). It counts as binding. The conditions noted are these: 50 nM CBL-b, 0.3 μM Bodipy FL-Probe, read-out: IC50 (CBL-b inhibition, group). An outline of the steps:
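Biotinylated CBL-b (a.a. 39-426, 50 nM final) pre-incubated with compound 60 min at RT in HEPES/NaCl/Triton/BSA/TCEP buffer, then Bodipy FL probe (0.3 μM final) 60 min, then terbium-streptavidin 60 min. TR-FRET read at 665/615 nm; IC50 and % max inhibition from sigmoidal fits.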

In experiment [2] the test system is NFAT signaling pathway in Jurkat NFAT reporter cells. Briefly: Jurkat NFAT reporter assay. It counts as cell-based. The following applies: Homo sapiens, 30 min with compound, then soluble anti-human CD3/CD28 antibody for 6 hours, luciferase readout, read-out: EC50 (Group). An outline of the steps: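 Jurkat cells bearing an NFAT-RE-driven luciferase reporter (1×10^5 per well) preincubated with Cbl-b inhibitor for 30 min, then stimulated 6 h with soluble anti-CD3/CD28. Luminescence read with Bio-Glo; values are fold change over anti-CD3/CD28-stimulated cells without inhibitor.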

Experiment [3] deals with human PBMCs stimulated with anti-CD3/CD28 Dynabeads. Briefly: Human PBMC cytokine release assay (IL-2 by ELISA). It counts as cell-based. The conditions noted are these: Dynabeads CD3/CD28 48 hours, IL-2 ELISA, fold change over baseline, read-out: EC50 (human PBMC cytokine release, group). As for the experimental part:
Peripheral blood mononuclear cells (PBMC) were isolated from healthy human donor using Histopaque (Sigma). The Cbl-inhibitor was added to 1×10^5 cells per well and the plate was incubated for 30 minutes at 37° C. in 5% CO2 at different concentrations with a final DMSO concentration of <0.5%. Following incubation with the Cbl-b inhibitor, human PBMCs were stimulated with Dynabeads™ Human T-Activator CD3/CD28 (Thermo Fisher Scientific) for 48 hours. Cell free supernatant were collected after end of incubation and were analyzed for cytokine secretion, including IL-2 by ELISA (R&D Systems). Readouts were reported as fold change over baseline. Here, baseline was the measurement obtained from human PBMCs stimulated with Dynabeads™ Human T-Activator CD3/CD28, where the cells were not incubated with a Cbl-b inhibitor.

SMILES strings stand for the structures.

T1 sequence (Q13191 39-426): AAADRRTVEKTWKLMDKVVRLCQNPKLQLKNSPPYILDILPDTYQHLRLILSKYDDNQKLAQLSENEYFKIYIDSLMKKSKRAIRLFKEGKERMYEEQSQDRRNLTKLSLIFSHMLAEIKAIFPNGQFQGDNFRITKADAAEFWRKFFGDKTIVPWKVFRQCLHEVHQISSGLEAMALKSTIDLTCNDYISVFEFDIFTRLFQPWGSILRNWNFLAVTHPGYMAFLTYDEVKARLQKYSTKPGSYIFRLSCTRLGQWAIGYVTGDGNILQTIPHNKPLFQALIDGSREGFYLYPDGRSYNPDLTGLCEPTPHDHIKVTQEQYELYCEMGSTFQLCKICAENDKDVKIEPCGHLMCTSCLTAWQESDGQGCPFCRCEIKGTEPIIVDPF

Consider `Cc1nc(CN2CCC[C@H](C)C2)cc(N2Cc3ccc(C4(Cc5nncn5C)COC4)cc3C2=O)n1` [Compound 53, (S)-6-(3-((4-Methyl-4H-1,2,4-triazol-3-yl)methyl)oxetan-3-yl)-2-(2-methyl-6-((3-methylpiperidin-1-yl)methyl)pyrimidin-4-yl)isoindolin-1-one], for which the concentration for half-maximal inhibition (IC50) in experiment [1] was less than 80 nM. The EC50 is 300 to 1000 nM in experiment [2] and less than 5 µM in experiment [3].
For `Cc1cc(CN2C[C@H](C)C[C@H](C)C2)cc(N2Cc3ccc(C4(Cc5nncn5C)COC4)cc3C2=O)c1` [Compound 56, 2-(3-(((3S,5R)-3,5-Dimethylpiperidin-1-yl)methyl)-5-methylphenyl)-6-(3-((4-methyl-4H-1,2,4-triazol-3-yl)methyl)oxetan-3-yl)isoindolin-1-one], in that order: 80 to 300 nM, less than 300 nM and less than 5 µM.
